# Reference: paper PMC12884720, “Gabpα‐Pparγ Complex Determines Glycolytic Capacity and Lactic Acid Homeostasis in Brown Fat” (Advanced Science, 2025)
# Residues, ends and D or L forms follow the SMILES beside them. *: point of attachment. FITC = O=C1OC2(c3ccc(O)cc3Oc3cc(O)ccc32)c2ccc(NC(=S)*)cc21
# Columns and labels:
# wild‐type mice [1] = test: Cold challenge: rectal core body temperature and survival; format: in vivo, wild‐type C57BL/6J mice; conditions: 4 °C
# Procedure: (§1) The mouse experiments were approved by the Institutional Animal Care and Use Committee of the Institute of Model Animals of Tongji Hospital, Huazhong University of Science and Technology, and were performed in compliance with all relevant ethical regulations (approval number: TJH‐202110044). Unless otherwise noted, the mice were housed in a pathogen‐free and climate‐controlled environment (22–25 °C, 40‐60% humidity) and were given free access to food and water on a 12 h light/dark cycle. Wild‐type C57BL/6J mice were obtained from Beijing Huafukang Bioscience Co., Ltd. (Beijing, China). Gabpa ^flox/flox , Adipoq^Cre , and Ucp1^Cre mice were purchased from Cyagen Biosciences, Inc. (Guangzhou, China). For GPCBi treatment, wild‐type mice were orthotopically injected GPCBi (FITC‐[…]; 5.5 mg kg^−1) or scramble peptide (FITC‐[…]; 5.5 mg kg^−1) into the BAT at room temperature for one week. […] For cold exposure, the mice were caged individually and exposed to a temperature of 10 or 4 °C. The mice were euthanized by CO2 inhalation. […] Body weight was measured every week, and tissue weights were measured at the time of euthanasia.
# wild‐type mice [2] = test: Lactate levels in BAT and serum; format: in vivo, wild‐type C57BL/6J mice; conditions: GPCBi 5.5 mg kg^−1 in BAT, 23 °C for 7 days then 10 °C for 2 days
# Procedure: as §1, with “euthanasia. […]” for “euthanasia.”
# Eno1 promoter = test: Luciferase reporter assay, Eno1-Luc activated by Gabpα and Pparγ/Rxrα; format: cell-based, human; conditions: HEK293T cells, GPCBi 3 µM, n = 3 (Figure 4g)
# Procedure: HEK293T cells were transfected with 100 ng of Pparγ and 100 ng of Rxrα or empty vector together with 100 ng of Gabpα plasmid or the C‐terminal truncation mutants and 200 ng of Eno1 luciferase reporter plasmid in 24‐well plates via Lipofectamine reagent (Yeasen, Shanghai, China, Cat# 40802ES03). For the experiments with the peptides GPCBi or T0070907, the additional peptides GPCBi (3 µM) or T0070907 (10 µM) were added to the HEK293T cells one day after the plasmid complex was transfected. After 48 h of transfection, luciferase activity was measured via the Dual‐Luciferase Reporter Assay System (Vazyme Biotech., Nanjing, China; Cat# DL101‐01). Firefly luciferase reporter gene measurements were normalized to Renilla luciferase activity.
# Gabpα–Pparγ interaction = test: Co-IP of His-Gabpα and Myc-Pparγ with peptide GPCBi; format: binding; conditions: HEK293T cells cotransfected with His‐Gabpα and Myc‐Pparγ, GPCBi 30 µM, 48 h, anti‐His IP (Figure S4c)
# Gabpα‐Pparγ complex = test: SPR competitive binding assay, GPCBi on Gabpα and Pparγ interaction; conditions: equal concentration of Gabpα and different concentrations of GPCBi over immobilized Pparγ (Figure 4b)
# Procedure: SPR analysis was performed using a Biacore T200 system (Cytiva) equipped with a Series S Sensor Chip CM5. Briefly, the ligand Pparγ protein was immobilized to the CM5 Chip via covalent bonds to the amino acid residues in immobilization buffer. Subsequently, different concentrations of Gabpα were diluted in the analyte buffer and were injected into the flowing channel to allow interaction between Pparγ and Gabpα. For a competitive binding assay, an equal concentration of Gabpα and different concentrations of GPCBi were injected into the flowing channel to examine the effect of the interaction between Pparγ and Gabpα. The interacting phase included 120 s of the association phase and 200 s of the dissociation phase. The data were analyzed in a Biacore T200 Evaluation Software (Cytiva).
# BAT from wild‐type mice = test: Gene expression (mRNA, protein) in BAT of treated mice; format: in vivo, wild‐type C57BL/6J mice
# Procedure: Reverse transcription of cDNA was completed via the use of 1 µg of RNA with HiScript II Q RT SuperMix for real‐time quantitative PCR (qPCR) (Vazyme Biotech, Nanjing, China, Cat# R222) according to the provided protocols. qPCR was performed with a real‐time PCR system on a QuantStudio1 (Applied Biosystems) using Taq Pro Universal SYBR qPCR Master Mix (Vazyme Biotech., Nanjing, China, Cat# Q712‐02). Relative transcript levels were calculated via the comparative C T method; 36b4 was used as the internal control for cells, whereas Hprt was used as the internal control for tissues. The primer sequences are listed in Table S1 (Supporting Information). The mRNAs from the BAT of control and Gabpα ^Ucp1 KO mice were extracted and subjected to commercial RNA‐seq (BGI Genomics Co., Ltd.) for further DEG and KEGG pathway enrichment analysis. In detail, RNA quality was examined with Fragment (Agilent). High‐quality RNA (RIN > 8.0) was used to library construction. RNA‐seq was performed at BGI Genomics (China) using the Illumina NovaSeq 6000 platform. Clean reads were aligned to the mouse reference genome (GRCm39) using Bowtie2, and transcript quantification was performed with RSEM. […] The RNA‐seq data generated in this study have been deposited in the National Center for Biotechnology Information Sequence Read Archive database under accession code PRJNA1358056.
# Cells and tissues were lysed in RIPA lysis buffer (Beyotime, Shanghai, China, Cat# P0013B) containing a protease inhibitor cocktail (MedChem Express, NJ, USA, Cat# HY‐K0010) according to the manufacturer's protocol. Equal amounts of protein were separated on SDS‒PAGE gels and transferred to PVDF membranes (Millipore). The PVDF membranes were blocked in 5% skim milk for 1 h at room temperature and then incubated with primary antibody overnight at 4 °C. The membranes were washed three times with TBST and then incubated with HRP‐conjugated secondary antibodies for 1 h at room temperature. After washing three times, the Western blots were imaged via an enhanced chemiluminescence system.
structure (smiles),measurement,setting,value
CC[C@H](C)[C@H](NC(=O)[C@H](CCCNC(=N)N)NC(=O)[C@H](CS)NC(=O)[C@H](CC(N)=O)NC(=O)[C@H](CC(C)C)NC(=O)[C@H](CC(=O)O)NC(=O)[C@H](CS)NC(=O)[C@H](CCCNC(=N)N)NC(=O)[C@H](CC(=O)O)NC(=O)[C@H](Cc1ccc(O)cc1)NC(=O)[C@@H](NC(=O)[C@H](CC(C)C)NC(=O)[C@H](CCCCN)NC(=O)[C@H](CC(C)C)NC(=O)[C@H](CCCNC(=N)N)NC(=O)[C@@H](NC(=O)[C@@H](NC(=O)[C@H](CCCNC(=N)N)NC(=O)[C@H](CCCNC(=N)N)NC(=O)[C@H](CCCNC(=N)N)NC(=O)[C@H](CCCNC(=N)N)NC(=O)[C@H](CCCNC(=N)N)NC(=O)[C@H](CCC(N)=O)NC(=O)[C@H](CCCNC(=N)N)NC(=O)[C@H](CCCNC(=N)N)NC(=O)[C@H](CCCCN)NC(=O)[C@H](CCCCN)NC(=O)[C@H](CCCNC(=N)N)NC(=O)CNC(=O)[C@H](Cc1ccc(O)cc1)NC(=S)Nc1ccc2c(c1)C(=O)OC21c2ccc(O)cc2Oc2cc(O)ccc21)[C@@H](C)O)[C@@H](C)CC)[C@@H](C)CC)C(=O)N[C@@H](Cc1c[nH]cn1)C(=O)N[C@@H](CCCCN)C(=O)N[C@@H](CCCCN)C(=O)N[C@@H](CO)C(=O)N[C@@H](CCCNC(=N)N)C(=O)N[C@@H](CC(N)=O)C(=O)N[C@@H](CCCCN)C(=O)O [GPCBi] ({FITC}-YGRKKRRQRRRRRTIRLKLIYDRCDLNCRIHKKSRNK-OH; N-terminus and C-terminus assumed),maintenance of core body temperature under acute cold stress,"wild‐type mice [1]; control n = 7, GPCBi n = 8 (Figure 4q)",struggled to maintain their core body temperatures
same,mortality under acute cold stress,"wild‐type mice [1]; control n = 7, GPCBi n = 8 (Figure 4r)",increased mortality
same,production of lactate in brown fat,wild‐type mice [2]; n = 3 (Figure 5c),substantially suppressed
same,lactate in circulation (serum),wild‐type mice [2]; n = 3 (Figure 5d),substantially suppressed
same,Gabpα‐Pparγ complex‐mediated activation of the Eno1 promoter,Eno1 promoter,suppressed
same,binding capacity between Gabpα and Pparγ,Gabpα–Pparγ interaction,decreased
same,effect on Gabpα affinity toward Pparγ,Gabpα‐Pparγ complex,dose‐dependently attenuated this interaction
same,Ldh and Ucp1 expression in BAT,"BAT from wild‐type mice; GPCBi 5.5 mg kg^−1 in BAT, 23 °C for 7 days then 10 °C for 2 days, mRNA n = 4 (Figure 5e,f)",effectively downregulated
same,"gene expressions of Eno1, Pkm2, and Ucp1 in BAT","BAT from wild‐type mice; GPCBi 5.5 mg kg^−1 orthotopically into BAT, 7 days, control n = 3, GPCBi n = 4 (Figure 4l,m)",decreased
same,"regulatory gene expression of the futile lipid cycle, BAT","BAT from wild‐type mice; GPCBi in BAT, 23 °C for 7 days to 10 °C for 2 days, control n = 4, GPCBi n = 3 (Figure S5a)",substantially impaired
